{"source": "patent US8624027B2", "about": "“Combination therapy for treating cancer and diagnostic assays for use therein” (AbbVie Inc., priority 2005, dated 2014)", "key": {"HCT116 cells": {"tested_on": "HCT116 cells", "experiment": "Aurora inhibitors in combination with ABT-263, cell viability (CellTiter-GLO)", "format": "cell-based, human", "conditions": "1 μM ABT-263, 72 hours; MLN8054 at Aurora A-selective concentrations (<5 μM)", "description": "24 hours post-transfection, cells were treated with ABT-263 in dose response, and cell viability was determined 72 hours after the addition of ABT-263. […] MLN8054 (FIG. 9C) or AZD1152 (FIG. 9D) were tested in combination with DMSO or 1 μM ABT-263 in HCT116 cells. Cell viability was determined 72 hours after treatment. […] EJ1 (FIG. 9F) or HCT116 (FIG. 9G) cells were transfected with a luciferase siRNA or the same set of siRNAs against Bcl-2, Bcl-XL, or Mcl-1 siRNAs as in FIG. 9E. 24 hours post-transfection, cells were treated with different amounts of AZD1152. Cell viability was determined 72 hours after exposure to AZD1152. […] Cell viability was determined 72 hours post-transfection. In all figures, cell viability was expressed as the percentage of untransfected, DMSO-treated control cells. The red viability curve represents a synergistic combination.\n(§1) Generally, cells were seeded at >90% viability (as determined by trypan blue exclusion) into 96-well plates overnight, treated with compounds or siRNAs for indicated duration, and the overall cell viability was determined by measuring luminescence."}, "[1]": {"tested_on": "tumor cell lines (D54MG, NCI-H460, A549, PC3, EJ1, HCT116, DLD1, SW620, 786-O)", "experiment": "Combination screen of VX-680, cell viability with Bliss additivism analysis", "format": "cell-based, human", "conditions": "VX-680 with ABT-263 in dose-response; viability 3 days after exposure", "description": "Cell viability was determined 3 days after exposure to the combination regimens. Synergy or antagonism of drug combinations was determined using the Bliss additivism model of drug-drug interactions (See, Berenbaum, M. C., Cancer Res 35, 269-335 (1981)). The value in excess of Bliss additivism for each dose was determined for all combinations and defined as follows: >15=synergistic, 0-15=no interaction, <−15=antagonistic. These values are expressed in a heatmap using SPOTFIRE® (TIBCO®) data analysis software where synergy is indicated in red, no interaction in gray, and antagonism in blue. […] These values are not applicable for Bliss analysis and were excluded from the heatmap. Compounds tested in combination are shown at the right. The targets/mechanisms of action of each of these agents and the corresponding dose responses for the combination screen is summarized in Table A in EXAMPLE 40.\nas §1\nCombined response scores greater than 15 were considered synergistic. […]"}}, "data": [{"smiles": "O=C(O)c1ccc(Nc2ncc3c(n2)-c2ccc(Cl)cc2C(c2c(F)cccc2F)=NC3)cc1", "note": "[MLN8054]", "values": [{"measurement": "synergy in combination with ABT-263 (cell viability)", "setting": "HCT116 cells", "value": "no synergy"}]}, {"smiles": "Cc1cc(Nc2cc(N3CCN(C)CC3)nc(Sc3ccc(NC(=O)C4CC4)cc3)n2)[nH]n1", "note": "[VX-680, cyclopropane carboxylic acid of {4-[4-(4-methyl-piperazin-1-yl)-6-(5-methyl-2H-pyrazol-3-ylamino)-pyrimidin-2-ylsulphanyl]-phenyl}-amide]", "values": [{"measurement": "Bliss analysis of cell viability, combination with ABT-263", "setting": "[1]", "value": "synergistic (>15=synergistic)"}]}]}
